Reference: article PMC9965875 (Pharmaceutics, 2023)
Where two headings read alike, the source gives them in different places.

Assays:
in vitro = conditions: BALB/c, mouse
[1] = test system: Leishmania (L.) infantum promastigotes (strain MHOM/MA/67/ITMAP-263); test: organism not typed; type: cell-based; conditions: read-out: Anti-Promastigote Activity (IC50)

Row | Compound | cytotoxicity at 10 µM (in vitro) | IC50 ([1]; 24 h) | IC50 [1] | also measured
1 | c1ccc2c(NCCCCCCCCCCCCNc3c4c(nc5ccccc35)CCCC4)c3c(nc2c1)CCCC3 [Compound 10.g] | 99.7% | 0.37 ± 0.06 µM | – | –
2 | O=CNCCCNc1c2c(nc3ccccc13)CCCC2 [Compound 8.d] | – | 14.2 ± 0.98 µM | – | cytotoxicity at 50 µM (in vitro): 100%
3 | CC(=O)NCCCCCCNc1c2c(nc3ccccc13)CCCC2 [Compound 7.a] | – | – | > 100 µM | –
4 | O=C1C(Cl)=C(NCCCNc2c3c(nc4cc(Cl)ccc24)CCCC3)C(=O)C(Cl)=C1NCCCNc1c2c(nc3cc(Cl)ccc13)CCCC2 [Compound 9.d] | – | – | 2.17 ± 0.45 µM | –
5 | c1ccc2c(NCCCCCNc3c4c(nc5ccccc35)CCCC4)c3c(nc2c1)CCCC3 [Compound 10.d] | – | > 50 µM | – | –
6 | Clc1ccc2c(NCCCNc3c4c(nc5cc(Cl)ccc35)CCCC4)c3c(nc2c1)CCCC3 [Compound 10.i] | 90.4% | – | 8.58 ± 0.47 µM | –
7 | Clc1ccc2c(NCCNc3c4c(nc5cc(Cl)ccc35)CCCC4)c3c(nc2c1)CCCC3 [Compound 10.h] | – | – | 9.5 ± 0.51 µM | melting point: 89 to 95 °C
8 | O=CNCNc1c2c(nc3ccccc13)CCCC2 [Compound 8.b] | 88.1% | 5.64 ± 0.65 µM | – | –
9 | C[C@@H]1[C@H](O)[C@@H](C)/C=C/C=C/C=C/C=C/C=C/C=C/C=C/[C@H](O[C@@H]2O[C@H](C)[C@@H](O)[C@H](N)[C@@H]2O)C[C@@H]2O[C@](O)(C[C@@H](O)C[C@@H](O)[C@H](O)CC[C@@H](O)C[C@@H](O)CC(=O)O[C@H]1C)C[C@H](O)[C@H]2C(=O)O [Amphotericin B, reference compound] | – | 0.17 ± 0.09 µM | – | EC50 (in vitro): 3.1 ± 0.6 µM
10 | O=C1C=C(NCCCNc2c3c(nc4cc(Cl)ccc24)CCCC3)C(=O)C=C1NCCCNc1c2c(nc3cc(Cl)ccc13)CCCC2 [Compound 9.c] | – | – | > 50 µM | –
11 | CC(=O)NCCCCCCCCNc1c2c(nc3cc(Cl)ccc13)CCCC2 [Compound 7.e] | – | > 100 µM | – | –
12 | CC(=O)NCCCCCCCCCCNc1c2c(nc3cc(Cl)ccc13)CCCC2 [Compound 7.f] | 77.5% | 11.2 ± 0.66 µM | – | –
13 | O=CNNc1c2c(nc3ccccc13)CCCC2 [Compound 8.a] | – | > 50 µM | – | –
14 | Clc1ccc2c(NCCCCCCCCCCCCNc3c4c(nc5cc(Cl)ccc35)CCCC4)c3c(nc2c1)CCCC3 [Compound 10.n] | – | – | 3.5 ± 0.63 µM | cytotoxicity at 50 µM (in vitro): 92.5%
15 | CC(=O)NCCCCCCCCNc1c2c(nc3ccccc13)CCCC2 [Compound 7.b] | – | – | > 100 µM | –
16 | Clc1ccc2c(NCCCCNc3c4c(nc5cc(Cl)ccc35)CCCC4)c3c(nc2c1)CCCC3 [Compound 10.j] | – | – | 8.56 ± 1.56 µM | EC50 (in vitro): 9.02 ± 1.79 µM
17 | O=CNCCCCCCCCNc1c2c(nc3ccccc13)CCCC2 [Compound 8.f] | 91.2% | 1.55 ± 0.38 µM | – | –
18 | c1ccc2c(NCCCCCCCCNc3c4c(nc5ccccc35)CCCC4)c3c(nc2c1)CCCC3 [Compound 10.e] | 99.5% | 2.99 ± 0.98 µM | – | –
19 | O=C1C(Cl)=C(NCCCNc2c3c(nc4ccccc24)CCCC3)C(=O)C(Cl)=C1NCCCNc1c2c(nc3ccccc13)CCCC2 [Compound 9.b] | – | – | > 100 µM | –
20 | Clc1c2c(nc3ccccc13)CCCC2 [Compound 5.a] | – | > 100 µM | – | –
21 | c1ccc2c(NCCCCCCCCCCNc3c4c(nc5ccccc35)CCCC4)c3c(nc2c1)CCCC3 [Compound 10.f] | 99.5% | 0.94 ± 0.33 µM | – | –
22 | Clc1ccc2c(NCCCCCNc3c4c(nc5cc(Cl)ccc35)CCCC4)c3c(nc2c1)CCCC3 [Compound 10.k] | 87.5% | – | 5.26 ± 4.89 µM | –
23 | Clc1ccc2c(NCCCCCCCCCCNc3c4c(nc5cc(Cl)ccc35)CCCC4)c3c(nc2c1)CCCC3 [Compound 10.m] | 99% | – | 1.92 ± 0.21 µM | –
24 | CC(=O)NCCCCCCNc1c2c(nc3cc(Cl)ccc13)CCCC2 [Compound 7.d] | – | – | > 100 µM | –
25 | Clc1ccc2c(Cl)c3c(nc2c1)CCCC3 [Compound 5.b] | – | > 100 µM | – | –
26 | O=CNCCNc1c2c(nc3ccccc13)CCCC2 [Compound 8.c] | 99.5% | 1.69 ± 0.22 µM | – | –
27 | O=CNCCCCCCNc1c2c(nc3ccccc13)CCCC2 [Compound 8.e] | 94.7% | 3.23 ± 0.41 µM | – | –
28 | Clc1ccc2c(NCCCCCCCCCCCCNc3ccnc4cc(Cl)ccc34)ccnc2c1 [Compound 12, N^1,N^12-bis(7-chloroquinolin-4-yl)dodecane-1,12-diamine] | – | 0.6 ± 0.11 µM | – | EC50 (in vitro): 11.7 ± 3.96 µM
29 | CC(=O)NCCCCCCCCCCNc1c2c(nc3ccccc13)CCCC2 [Compound 7.c] | – | > 100 µM | – | –
